Results from publication PMC8745601 (International Journal of Molecular Sciences, 2021).

Key:
OCT2 = target: T1, OCT2 (Homo sapiens, UniProt O15244); assay: in vitro; conditions: mdck
T1 sequence (O15244 1-555): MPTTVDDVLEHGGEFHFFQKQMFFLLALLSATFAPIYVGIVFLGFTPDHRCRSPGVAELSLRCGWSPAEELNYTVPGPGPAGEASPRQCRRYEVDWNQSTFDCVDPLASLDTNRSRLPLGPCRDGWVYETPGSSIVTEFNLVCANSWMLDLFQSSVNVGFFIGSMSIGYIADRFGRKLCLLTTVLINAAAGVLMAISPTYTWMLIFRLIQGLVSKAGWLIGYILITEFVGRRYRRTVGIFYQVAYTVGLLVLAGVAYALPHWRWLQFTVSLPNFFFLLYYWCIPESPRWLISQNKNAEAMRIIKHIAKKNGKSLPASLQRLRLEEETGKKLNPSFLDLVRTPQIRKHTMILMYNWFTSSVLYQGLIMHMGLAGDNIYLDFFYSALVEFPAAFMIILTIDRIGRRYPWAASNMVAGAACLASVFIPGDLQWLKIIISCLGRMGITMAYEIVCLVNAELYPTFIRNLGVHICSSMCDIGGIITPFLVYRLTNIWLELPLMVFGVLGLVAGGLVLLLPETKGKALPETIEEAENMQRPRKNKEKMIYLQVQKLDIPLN
Description: Cellular uptake studies: For all transport studies, cells were seeded in 24-well plates and incubated in a full growth medium at an initial density of 200,000 cells/well for 3 days. Before starting each transport experiment, cells were washed with a pre-warmed (37 °C) incubation buffer [64]. […] Protein concentration of whole cell lysate was determined to quantify cell density after each experiment using the BCA assay according to the manufacturer’s instructions (Pierce, Rockford, IL, USA).
Statistical evaluation: All experiments were performed at least three times unless otherwise noted. The OATP1A2*1–*3 and OCT1-3 net uptake was obtained by subtracting the uptake into wild-type cells from that of the transporter-transfected cells. Km and Vmax were assessed using Prism 5.01 (GraphPad Software, San Diego, CA, USA). The differences in the doxorubcin uptake in OATP1A2*1–*3 and in OCT1-3 transfected cells were adjusted to the membranous transporter protein levels in the whole cell lysate. Km and Vmax are presented as arithmetic means ± standard deviation.

[1] = cumulative dose 450–600 mg/m^2; cited from earlier work
BCRP = target: T2, BCRP (Homo sapiens, UniProt Q9UNQ0); assay: Transwell assay, MDCKII cells stably expressing BCRP; format: cell-based; conditions: 100 µmol/L doxorubicin; MDCKII-BCRP on Transwell
T2 construct: expressed in transfected cells; host or cells: MDCKII
T2 sequence (Q9UNQ0 1-655): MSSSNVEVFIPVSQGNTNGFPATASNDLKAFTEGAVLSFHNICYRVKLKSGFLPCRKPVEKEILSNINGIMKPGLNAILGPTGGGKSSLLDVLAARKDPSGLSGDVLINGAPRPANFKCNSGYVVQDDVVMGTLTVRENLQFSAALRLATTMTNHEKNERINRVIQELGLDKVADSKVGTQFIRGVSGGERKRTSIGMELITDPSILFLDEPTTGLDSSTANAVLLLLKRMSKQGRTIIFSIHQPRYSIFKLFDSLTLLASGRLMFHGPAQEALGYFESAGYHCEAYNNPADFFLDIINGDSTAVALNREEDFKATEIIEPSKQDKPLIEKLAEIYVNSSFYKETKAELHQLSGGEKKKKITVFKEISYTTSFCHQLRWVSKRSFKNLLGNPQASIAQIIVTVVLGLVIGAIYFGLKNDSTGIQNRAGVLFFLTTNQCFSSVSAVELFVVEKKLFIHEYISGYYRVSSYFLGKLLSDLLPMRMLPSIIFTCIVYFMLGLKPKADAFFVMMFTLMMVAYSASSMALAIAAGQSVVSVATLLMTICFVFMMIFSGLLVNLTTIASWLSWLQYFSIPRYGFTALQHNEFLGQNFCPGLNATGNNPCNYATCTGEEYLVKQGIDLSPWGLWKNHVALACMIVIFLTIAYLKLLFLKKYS
Description: In brief, MDCKII cells stably expressing P-gp or BCRP were seeded on 0.4 µm Transwell® membrane inserts (200.000 cells/insert; Ø6.5 mm, growth area 0.33 cm2) and allowed to differentiate for five days. The integrity of the monolayer was confirmed by monitoring the trans-epithelial electrical resistance (TEER) using the EVOMX system (WPI, Sarasota, FL, USA). […] Every 30 min, the incubation buffer was removed from the receiver compartment and replaced by a freshly preheated buffer for a total time of 2.5 h.

[2] = system: breast cancer cell lines MCF-7, MDA-MB-231, ZR-75-1; assay: Resazurin cell viability assay in breast cancer cell lines; conditions: 100 µmol/L doxorubicin, 72 h, versus DMSO
Description: Resazurin-Assay: To determine cell viability, cells were seeded at a density of 10,000 cells/well in 96-well multiplates. […] Afterward, 100 µL from each well was placed in a cavity of a 96-well plate, and the fluorescence was determined on a microplate reader (TECAN infinite M200, Tecan GmbH, Crailsheim, Germany) at an excitation wavelength of 530 nm and an emission wavelength of 590 nm.

OCT6 = OCT6 affinity to doxorubicin; cited from earlier work

COc1cccc2c1C(=O)c1c(O)c3c(c(O)c1C2=O)C[C@@](O)(C(=O)CO)C[C@@H]3O[C@H]1C[C@H](N)[C@H](O)[C@H](C)O1 [doxorubicin, Doxorubicin]
microsomal CLint at 3 min (OCT2): 0.5 ± 0.26 µL/min/mg | risk of congestive heart failure [1]: 3–18% | vectorial transport of doxorubicin by BCRP (BCRP): vectorial transport from the basolateral to the apical compartment | cell viability in presence of doxorubicin [2]: significantly reduced | Km (OCT6): ~5 µM
